Experimental data taken from PubChem BioAssay (NCI).
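Cells were grown in 96-well plates and exposed to each compound for 48 hours at five concentrations; endpoints were interpolated linearly between bracketing concentrations, or set to the highest concentration if not reached. TGI is the concentration that stops growth completely.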

Assays:
Assay in all cases: inhibition of tumour cell growth, NCI panel, 48 h
786-0 renal = system: 786-0 renal
A498 renal = system: A498 renal
A549 NSCLC = system: A549 NSCLC
ACHN renal = system: ACHN renal
CAKI-1 renal = system: CAKI-1 renal
CCRF-CEM leukemia = system: CCRF-CEM leukemia
COLO 205 colon = system: COLO 205 colon
DU-145 prostate = system: DU-145 prostate
EKVX NSCLC = system: EKVX NSCLC
HCC-2998 colon = system: HCC-2998 colon
HCT-116 colon = system: HCT-116 colon
HCT-15 colon = system: HCT-15 colon
HL-60(TB) leukemia = system: HL-60(TB) leukemia
HOP-62 NSCLC = system: HOP-62 NSCLC
HOP-92 NSCLC = system: HOP-92 NSCLC
HS 578T breast = system: HS 578T breast
HT29 colon = system: HT29 colon
IGROV1 ovarian = system: IGROV1 ovarian
K-562 leukemia = system: K-562 leukemia
KM12 colon = system: KM12 colon
LOX IMVI melanoma = system: LOX IMVI melanoma
M14 melanoma = system: M14 melanoma
MALME-3M melanoma = system: MALME-3M melanoma
MDA-MB-231 breast = system: MDA-MB-231 breast
MDA-MB-435 = system: MDA-MB-435
MDA-N = system: MDA-N
MOLT-4 leukemia = system: MOLT-4 leukemia
NCI-H226 lung = system: NCI-H226 lung
NCI-H23 lung = system: NCI-H23 lung
NCI-H460 lung = system: NCI-H460 lung
NCI-H522 lung = system: NCI-H522 lung
NCI/ADR-RES ovarian = system: NCI/ADR-RES ovarian
OVCAR-3 ovarian = system: OVCAR-3 ovarian
OVCAR-4 ovarian = system: OVCAR-4 ovarian
OVCAR-5 ovarian = system: OVCAR-5 ovarian
PC-3 prostate = system: PC-3 prostate
RPMI-8226 leukemia = system: RPMI-8226 leukemia
RXF 393 renal = system: RXF 393 renal
SF-268 CNS = system: SF-268 CNS
SF-295 CNS = system: SF-295 CNS
SF-539 CNS = system: SF-539 CNS
SK-MEL-2 melanoma = system: SK-MEL-2 melanoma
SK-MEL-28 melanoma = system: SK-MEL-28 melanoma
SK-MEL-5 melanoma = system: SK-MEL-5 melanoma
SK-OV-3 ovarian = system: SK-OV-3 ovarian
SN12C renal = system: SN12C renal
SNB-19 CNS = system: SNB-19 CNS
SNB-75 CNS = system: SNB-75 CNS
SR leukemia = system: SR leukemia
SW-620 colon = system: SW-620 colon
T-47D breast = system: T-47D breast
TK-10 renal = system: TK-10 renal
U251 CNS = system: U251 CNS
UACC-62 melanoma = system: UACC-62 melanoma
UO-31 renal = system: UO-31 renal
MCF7 breast = system: MCF7 breast
UACC-257 melanoma = system: UACC-257 melanoma
BT-549 breast = system: BT-549 breast
OVCAR-8 ovarian = system: OVCAR-8 ovarian

Measured: TGI

CCC(C)(C)/C(CC(O)(C(F)(F)F)C(F)(F)F)=N\O
not listed: MCF7 breast | UACC-257 melanoma | BT-549 breast | OVCAR-8 ovarian
> 100 µM: all other assays above

COCCOCc1nc(C#N)c(N)o1
not listed: NCI-H522 lung | BT-549 breast | OVCAR-8 ovarian
> 100 µM: all other assays above

O=S1(=O)OCCOS(=O)(=O)C1F
not listed: A498 renal | HOP-92 NSCLC | IGROV1 ovarian | MDA-MB-231 breast | NCI-H460 lung
> 100 µM: all other assays above

CC(C)(Cc1ccccc1)NC1=NCCO1
not listed: HOP-62 NSCLC | SF-268 CNS | SN12C renal | T-47D breast
> 100 µM: all other assays above
